Measured values from patent US8486968B2, “Compounds” (Boehringer Ingelheim International GmbH, priority 2010, dated 2013).

Columns and labels:
mPGES-1 [1] = molecular target: T1, mPGES-1 (Homo sapiens, UniProt O14684); assay: A549 cell-based assay (PGE2 formation, IL-1β stimulated, 50% human serum); design: host or cells: A549 cells; details: A549 cells, IL-1β 5 ng/ml, 20-24 h, Table B, read-out: mPGES-1 inhibitory effect, IC50, cell assay
T1 sequence (O14684 1-152): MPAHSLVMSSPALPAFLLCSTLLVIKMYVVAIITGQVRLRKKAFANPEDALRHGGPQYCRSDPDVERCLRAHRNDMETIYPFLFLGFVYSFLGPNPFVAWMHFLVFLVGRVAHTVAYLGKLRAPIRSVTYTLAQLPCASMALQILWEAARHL
Protocol: Although the enzymatic assay is a high throughput assay the disadvantage is that it uses a recombinant protein which is not in its natural environment. Accordingly a cellular assay was established in which a cell line of human origin (A549) expressing the mPGES-1 protein was used. In addition in order to mimic the situation in humans in which compounds can be bound to plasma proteins 50% human serum is added in the assay. By having the combination of testing mPGES-1 in a cellular environment and the presence of 50% human serum this assay has a higher relevance to judge the therapeutic potential of a mPGES-inhibitor than the pure enzyme assay.
A549 cells (ATCC: CCL-185) are grown to about 90% confluence in F-12K Nutrient Mixture (Kaighn's Mod. Gibco) containing 10% FBS in a humified incubator at 37° C. and 5% CO2. Cells were detached using Trypsin-EDTA. A549 cells were seeded in a 384-well collagene plate at a density of 7000 cells/well (50 μl) in F-12 medium containing 1% Penicillin-Streptomycin and 50% human serum. The cells were allowed to attach for 3-4 h. After that the cells were incubated for 20-24 h in F-12k medium supplemented with 50% human serum, 1% Penicillin-Streptomycin and containing IL-1β at a final concentration of 5 ng/ml as well as 10 nM arachidonic acid in the presence of a vehicle or a test compound. The total volume is 100 μl.
Concentrations of PGE2 in the cell free medium (10 μl) were measured using a commercially available HTRF kit from Cisbio (as described above). The PGE2 formation in the absence of test compound was taken as 100%.
IC50 values were derived from at 6-8 point titrations using conventional software.

mPGES-1 [2] = molecular target: T1, mPGES-1; assay: mPGES-1 enzyme assay (HTRF detection of PGE2); type: biochemical; design: made in house; host or cells: Rosetta E. coli (membrane/microsome fraction); details: recombinant human mPGES-1 microsomes, PGH2 2 μM, Table A; read-out: mPGES-1 inhibitory effect, IC50, enzyme assay
Protocol: Microsomes from Rosetta E. coli bacteria expressing recombinant human mPGES-1 can be derived as described below:
Inoculate 5 ml LB with Ampicilin (50 μg/ml) and Chloramphenicol (34 μg/ml) with bacteria from freeze culture. Incubate 8 h at 37° C. with 200 rpm. Thereafter, inoculate 500-1000 ml LB containing Amp and Chloro with the 5 ml on culture and grow to OD640 of 0.8-1.0. Chill the culture to +4° C. before induction. Induce the culture with IPTG at a final concentration of 400 μM. Express the protein at room temp 18-23° C. with 200 rpm shaking over night.
The following steps can be performed on the following day: • 1. Spin down the cells in 250 ml centrifuge flasks for 15 min at 7000 rpm (Beckmann Coulte Avanti J-E centrifuge) • 2. Dissolve the pellet from 250 ml culture in 12.5 ml homogenization buffer • 3. (15 mM Tris-HCL pH8, 1 mM EDTA pH8, […], 2.5 mM GSH, 1 Tablet Protease inhibitor per 50 ml buffer) • 4. Disintegrate the cells by sonication, 5×10 seconds at 48% amplitude of a 750 W sonifier • 5. Add 2.5 ml MgCl2 (100 mM) and DNase 12.5 μl (0.8 mg/ml) and incubate on ice for 30 min • 6. Spin down the bacteria debris and save the supernatant, 7000 rpm for 15 min • 7. Isolate the protein containing membranes in the supernatant by ultracentrifugation 120000×g for 2 hour at 4° C. (Sorvall T880 rotor). • 8. Discard the supernatant and dissolve the pellet in 20 mM Potassium phosphate buffer pH 7.4 (KH2PO4 and K2HPO4) buffer by sonication (5×10 s, 30% of a 50 W sonifier) and aliquot the enzyme and store aliquots at −80° C.
Before each experiment is performed an aliquot of the enzyme is thawed and it can then be dissolved in 0.1 M Potassium phosphate buffer pH7.4 (KH2PO4 and K2HPO4) buffer containing 2.5 mM GSH.
The aim of this assay is the determine the affinity of a test compound for the mPGES-1 enzyme.
47 μl of recombinant human mPGES-1 (˜0.5 μg protein/well) containing microsomal suspension in a buffer containing GSH, (2.5 mmol/L L-Glutathione reduced, dissolved in 0.1 mol/L Phosphat Buffer pH 7.4) is dispensed in a 384-well plate and thereafter 1 μl of the test compound(s) is/are added and incubated for 25 minutes at room temperature. The enzyme reaction is started by the addition of 2 μl PGH2 (final conc. 2 μM) dissolved in water-free Diglyme. After 60 seconds the reaction is terminated by addition of a stop solution containing FeCl2 (10 μL 0.074 mol/l FeCl2). The samples are diluted between 1:25 in PBS (Phosphate Buffered Saline). 10 μl of the diluted samples are transferred to 384-well low volume plate. In order to quantify the amount of PGE2 that has been formed, a homogenous time resolved fluorescent (HTRF) detecting of PGE2 has been performed using a commercially available kit from Cisbio according to the manufactures recommendation. This HTRF-based assay has been described in detail (see: Goedken et al., J Biomol Screen, 2008, 13(7), 619-625). Briefly, the diluted samples are mixed with 5 μl PGE2-d2 conjungate and 5 μl anti-PGE2 cryptate conjungate. After an incubation period of the plates over night, the fluorescence is measured by the use of an appropriate microplate reader.
The fluorescence of Europium cryptate (maxex=307 nm, maxem=620 nm) and d2-PGE2 (maxex=620 nm, maxem=665 nm) are measured.
The extent of the specific HTRF is measured as a ratio of the emission intensity at 665 nm vs. that at 620 nm at an excitation puls of 320 nm. The quantification plate contains also wells with different concentrations of PGE2 as calibration curve for the calculation of the PGE2 concentrations from the HTRF ratio values.
From all mPGES enzyme assay the background is subtracted and the IC50 is calculated over a nonlinear regression with conventional software.

Row | melting point [°C] | IC50 (mPGES-1 [1]) [nM] | IC50 (mPGES-1 [2]) [nM] | SMILES
1 | 185 to 186 | 1 | 3 | Cn1c(Nc2c(Cl)ccc(CNC(=O)C(C)(C)C)c2Cl)nc2cc(C(=O)N[C@H]3CC[C@H](C(F)(F)F)CC3)c(N3CCC(C(F)(F)F)CC3)nc21 [Example 30, N-(trans-4-Trifluoromethyl-cyclohexyl)-2-{2,6-dichloro-3-[(2,2-dimethyl-propionylamino)-methyl]-phenylamino}-5-[4-trifluoromethyl-piperidinyl]-3-methyl-3H-imidazo[4,5-b]pyridine-6-carboxamide]
2 | 198 to 200 | 7 | 4 | CC(C)(C)C(=O)NCc1ccc(Cl)c(Nc2nc3cc(C(=O)N[C@H]4CC[C@H](C(F)(F)F)CC4)c(N4CCC(C(F)(F)F)CC4)nc3n2C2CC2)c1Cl [Example 26]
3 | 189 to 191 | 3 | 1 | CC(C)(C)C(=O)NCc1ccc(Cl)c(Nc2nc3cc(C(=O)N[C@H]4CC[C@H](C(F)(F)F)CC4)c(N4CCC(C(F)(F)F)CC4)nc3n2CC(N)=O)c1Cl [Example 28]
4 | 172 to 174 | 2 | 3 | CC(C)(C)C(=O)NCc1ccc(Cl)c(Nc2nc3cc(C(=O)N[C@H]4CC[C@H](C(F)(F)F)CC4)c(N4CCC(C(F)(F)F)CC4)nc3n2CC(F)F)c1Cl [Example 27]
